Measured values reported in US20160089348A1, “USE OF AN S1P RECEPTOR AGONIST” (priority 2009, published 2016).

Experiments:
[1] = tested on: patients with relapsing-remitting MS (RRMS); test: Brain volume change (brain atrophy) by MRI using SIENA software in clinical study of daily oral fingolimod vs placebo; format: in vivo, human; conditions: for Brain volume, Percent change from Month 12 to Month 24, Mean (SD) / Brain volume, Percent change from Month 12 to Month 24, Median / Brain volume, Percent change from baseline to Month 24, Mean (SD) / Brain volume, Percent change from baseline to Month 24, Median / Brain volume, Percent change from baseline to Month 12, Mean (SD) / Brain volume, Percent change from baseline to Month 12, Median / Brain volume, Percent change from baseline to Month 6, Mean (SD) / Brain volume, Percent change from baseline to Month 6, Median: RRMS patients
Method: Annualized relapse rate (ARR) over 24 months (primary endpoint) and time to disability progression (key secondary endpoint) is assessed in patients with relapsing-remitting MS (RRMS). Patients aged 18-55 years with an Expanded Disability Status Scale score 0-5.5, relapse in the previous year (or ≧2 in the previous 2 years) are randomized to daily oral fingolimod 1.25 mg or 0.5 mg, or placebo. […]

[2] = tested on: patients with relapsing-remitting MS (RRMS); test: MRI lesion measures (Gd-enhancing, T2, T1 hypointense lesions) in clinical study of daily oral fingolimod vs placebo; format: in vivo, human; conditions: for T1 hypointense lesion volume, months 0-24 - % change, Mean ± SD / T1 hypointense lesion volume, months 0-24 - % change, Median (range) / T2 lesion volume, months 0-24 - % change, Mean ± SD / T2 lesion volume, months 0-24 - % change, Median (range) / Patients free from new or enlarged T2 lesions, months 0-24 - (%) / Patients free from new or enlarged T2 lesions, months 0-24 - no.: RRMS patients
Method: Annualized relapse rate (ARR) over 24 months (primary endpoint) and time to disability progression (key secondary endpoint) is assessed in patients with relapsing-remitting MS (RRMS). Patients aged 18-55 years with an Expanded Disability Status Scale score 0-5.5, relapse in the previous year (or ≧2 in the previous 2 years) are randomized to daily oral fingolimod 1.25 mg or 0.5 mg, or placebo. […] The brain volume changes for months 0 to 12 is measured using SIENA software.

[3] = FTY720 0.5 mg daily oral, n 356
[4] = FTY720 0.5 mg daily oral, n 357
[5] = FTY720 0.5 mg daily oral, n 383
[6] = FTY720 0.5 mg daily oral, n 395
[7] = FTY720 1.25 mg daily oral, n 327
[8] = FTY720 1.25 mg daily oral, n 334
[9] = FTY720 1.25 mg daily oral, n 371
[10] = FTY720 1.25 mg daily oral, n 384
[11] = fingolimod-treated patients, baseline to month 24
[12] = fingolimod 0.5 mg daily oral, N = 346 with MRI data
[13] = fingolimod 0.5 mg daily oral, N = 368 with MRI data
[14] = fingolimod 0.5 mg daily oral, N = 425
[15] = fingolimod 1.25 mg daily oral, N = 317 with MRI data
[16] = fingolimod 1.25 mg daily oral, N = 343 with MRI data
[17] = fingolimod 1.25 mg daily oral, N = 429
[18] = both fingolimod groups (1.25 mg, 0.5 mg), at 6, 12 and 24 months

For `CCCCCCCCc1ccc(CCC(N)(CO)CO)cc1.Cl` [fingolimod, 2-amino-2-[2-(4-octylphenyl)ethyl]propane-1,3-diol], which “Brain volume, Percent change from Month 12 to Month 24, Mean (SD)” value [1, 3] is on record?
Its value is −0.370 (0.8073) %.

And the “Brain volume, Percent change from Month 12 to Month 24, Median” value [1, 3]?
The value was −0.340%.

And the “Brain volume, Percent change from baseline to Month 24, Mean (SD)” value [1, 4]?
Its value is −0.843 (1.3120) %.

What about the “Brain volume, Percent change from baseline to Month 24, Median” value [1, 4] of the same compound?
Its value is −0.670%.

And the “Brain volume, Percent change from baseline to Month 12, Mean (SD)” value [1, 5]?
The value was −0.500 (1.0509) %.

And the “Brain volume, Percent change from baseline to Month 12, Median” value [1, 5]?
Its value is −0.380%.

And the “Brain volume, Percent change from baseline to Month 6, Mean (SD)” value [1, 6]?
The value was −0.224 (0.8131) %.

And the “Brain volume, Percent change from baseline to Month 6, Median” value [1, 6]?
Its value is −0.140%.

What about the “Brain volume, Percent change from Month 12 to Month 24, Mean (SD)” value [1, 7] of the same compound?
Its value is −0.423 (0.8284) %.

And the “Brain volume, Percent change from Month 12 to Month 24, Median” value [1, 7]?
The value was −0.380%.

And the “Brain volume, Percent change from baseline to Month 24, Mean (SD)” value [1, 8]?
The value was −0.885 (1.3857) %.

And the “Brain volume, Percent change from baseline to Month 24, Median” value [1, 8]?
Its value is −0.700%.

What about the “Brain volume, Percent change from baseline to Month 12, Mean (SD)” value [1, 9] of the same compound?
Its value is −0.438 (1.0792) %.

And the “Brain volume, Percent change from baseline to Month 12, Median” value [1, 9]?
Its value is −0.300%.

And the “Brain volume, Percent change from baseline to Month 6, Mean (SD)” value [1, 10]?
The value was −0.209 (0.8649) %.

And the “Brain volume, Percent change from baseline to Month 6, Median” value [1, 10]?
Its value is −0.120%.

And the “Reduction in atrophy rate versus placebo” value [1, 11]?
The value was 30%.

And the “Reduction in brain volume versus placebo group” value [1, 11]?
The value was “significantly less reduction in brain volume than those in the placebo group”.

What about the “T1 hypointense lesion volume, months 0-24 - % change, Mean ± SD” value [2, 12] of the same compound?
The value was 8.8 ± 76.27%.

What about the “T1 hypointense lesion volume, months 0-24 - % change, Median (range)” value [2, 12] of the same compound?
The value was 0.00 (−100.0-1037.1) %.

And the “T2 lesion volume, months 0-24 - % change, Mean ± SD” value [2, 13]?
Its value is 10.6 ± 103.46%.

And the “T2 lesion volume, months 0-24 - % change, Median (range)” value [2, 13]?
Its value is −1.69 (−100.0-1828.5) %.

What about the “Patients free from new or enlarged T2 lesions, months 0-24 - (%)” value [2, 14] of the same compound?
The value was 50.5%.

What about the “Patients free from new or enlarged T2 lesions, months 0-24 - no.” value [2, 14] of the same compound?
Its value is 187.

What about the “T1 hypointense lesion volume, months 0-24 - % change, Mean ± SD” value [2, 15] of the same compound?
Its value is 12.2 ± 85.49%.

What about the “T1 hypointense lesion volume, months 0-24 - % change, Median (range)” value [2, 15] of the same compound?
Its value is −0.20 (−100.0-888.4) %.

And the “T2 lesion volume, months 0-24 - % change, Mean ± SD” value [2, 16]?
Its value is 1.6 ± 30.71%.

And the “T2 lesion volume, months 0-24 - % change, Median (range)” value [2, 16]?
The value was −3.10 (−68.2-221.5) %.

What about the “Patients free from new or enlarged T2 lesions, months 0-24 - (%)” value [2, 17] of the same compound?
Its value is 51.9%.

What about the “Patients free from new or enlarged T2 lesions, months 0-24 - no.” value [2, 17] of the same compound?
Its value is 175.

What about the “Proportions of patients free from new or enlarged T2 lesions versus placebo” value ([2]; both fingolimod doses, over 24 months) of the same compound?
Its value is “greater proportions of patients are free from these lesions”.

What about the “Gd-enhancing lesions versus placebo group” value [2, 18] of the same compound?
Its value is “significantly fewer Gd-enhancing lesions than those in the placebo group”.

What about the “Patients free from Gd-enhancing lesions versus placebo” value [2, 18] of the same compound?
Its value is “proportionately more patients are free from Gd-enhancing lesions”.

What about the “New or enlarged T2 lesions versus placebo” value ([2]; fingolimod 0.5 mg or 1.25 mg, over 24 months) of the same compound?
The value was “Fewer new or enlarged T2 lesions”.

And the “Volume of T2 lesions, change from baseline to month 24” value ([2]; fingolimod-treated patients, increases with placebo)?
Its value is “decreases”.
